# Laboratory results reported in patent US20260191853A1, “METHOD OF TREATING DRUG-INDUCED BRADYARRHYTHMIA” (OSAKA UNIVERSITY, priority 2022, published 2026).
# Entries after “also recorded” stand apart in the source; their conditions may differ.
# What was measured:
# Hartley guinea pigs = assay: Preventive effect on fingolimod-induced bradyarrhythmia in isoflurane-anesthetized guinea pig model; assay type: in vivo
# Description: A solvent or compound (I) (free form) was administered by oral gavage at a dose of 1, 3, or 10 mg/kg (volume: 5 mL/kg) to Hartley guinea pigs (7 to 10 weeks old, male, available from Japan SLC, Inc.). After completion of the administration, each animal was subjected to anesthetic induction by inhalation of isoflurane (available from Pfizer Japan Inc.), and the animal was held on an operating table having a heater function. The trachea was incised, and a tracheal cannula (KN-375, available from Natsume Seisakusho Co., Ltd.) was inserted. The tracheal cannula was connected to a ventilator (SN-480-7, available from Shinano Seisakusho Co., Ltd.), and artificial respiration was controlled by supplying 100% oxygen at a volume of 10 mL and a ventilation rate of 60 times/minute. The solvent used was 0.5 w/v % methyl cellulose 400 solution (available from FUJIFILM Wako Pure Chemical Corporation). Isoflurane (available from Pfizer Japan Inc.) anesthesia (about 1 to 4%, carrier gas: 100% oxygen) was used for maintenance of anesthesia. A catheter (BD intramedic polyethylene tubing PE50, available from Becton, Dickinson and Company) charged with 50 units/mL heparin (available from AY PHARMACEUTICALS CO., LTD.) was inserted into each of the carotid artery and the jugular vein and placed in the blood vessel. Systemic blood pressure was measured with a high-sensitivity DC amplifier (AD-611J, available from NIHON KOHDEN CORPORATION) via the catheter placed in the carotid artery. Electrodes were attached to the body surface, and a body surface electrocardiogram was measured with a high-sensitivity amplifier (AB-611J, available from NIHON KOHDEN CORPORATION). Blood pressure and electrocardiogram data were acquired and analyzed with PowerLab/Labchart system (available from ADInstruments). Analysis items are systolic blood pressure, diastolic blood pressure, average blood pressure, heart rate, P-wave width, PR interval, QRS width, QT interval, and corrected QT interval. Corrected QT interval was calculated using the fridericia formula (QTc=QT interval/RR interval^1/3). After stabilization of each parameter, fingolimod hydrochloride (synthesized with reference to WO 2000/027798) was continuously administered intravenously at 0.1 mg/kg for 10 minutes via the catheter placed in the jugular vein, followed by observation of the presence or absence of the onset of bradyarrhythmia for 60 minutes. The solvent used was saline (available from Otsuka Pharmaceutical Factory, Inc.). Data were recorded and blood was collected 5, 10, 15, 20, 30, and 60 minutes after initiation of administration of fingolimod hydrochloride. The observation was terminated 60 minutes after initiation of the administration, and the animal was euthanized by exsanguination or intravenous administration of a large amount of pentobarbital or saturated potassium chloride solution under isoflurane anesthesia. Data were analyzed for atrial beating rate over time, ventricular beating rate over time, electrocardiographic parameters, the presence or absence of the onset of atrioventricular block, and plasma concentrations of compound (I), fingolimod, and fingolimod phosphorylated form. The plasma was collected by centrifuging the blood and cryopreserved at about −20° C. After thawing of the plasma, plasma drug concentrations were measured using LC/MS/MS after deproteinization with acetonitrile.
# Atrioventricular block was defined as follows.
# Second-degree atrioventricular block: atrial activation wave (P wave) is normal, which is followed by or not followed by ventricular activation wave (QRS wave).
# Third-degree atrioventricular block: there is no electrical conduction between the atrium and the ventricle, and atrial and ventricular activation waves are generated independently, resulting in atrioventricular dissociation.
# In FIG. 1, the measurements are shown as mean±standard error. […]
# KACh channel = molecular target: T1, KACh channel (Homo sapiens, UniProt P48544+P48549); assay: KACh channel inhibitory action
# T1 sequence (P48549 1-501): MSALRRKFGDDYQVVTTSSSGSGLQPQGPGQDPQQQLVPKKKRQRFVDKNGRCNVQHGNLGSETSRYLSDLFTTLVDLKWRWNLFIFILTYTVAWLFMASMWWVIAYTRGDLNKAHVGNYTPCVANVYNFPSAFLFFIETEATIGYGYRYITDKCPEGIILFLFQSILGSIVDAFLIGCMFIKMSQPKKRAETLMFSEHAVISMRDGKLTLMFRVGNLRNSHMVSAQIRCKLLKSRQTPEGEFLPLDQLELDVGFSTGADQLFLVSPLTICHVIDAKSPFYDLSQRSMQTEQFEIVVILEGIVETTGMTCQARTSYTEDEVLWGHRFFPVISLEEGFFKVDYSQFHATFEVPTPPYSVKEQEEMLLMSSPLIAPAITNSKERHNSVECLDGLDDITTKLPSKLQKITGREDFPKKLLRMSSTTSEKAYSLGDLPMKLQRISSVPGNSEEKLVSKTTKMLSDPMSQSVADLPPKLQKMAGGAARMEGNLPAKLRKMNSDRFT
# T1 sequence (P48544 1-419): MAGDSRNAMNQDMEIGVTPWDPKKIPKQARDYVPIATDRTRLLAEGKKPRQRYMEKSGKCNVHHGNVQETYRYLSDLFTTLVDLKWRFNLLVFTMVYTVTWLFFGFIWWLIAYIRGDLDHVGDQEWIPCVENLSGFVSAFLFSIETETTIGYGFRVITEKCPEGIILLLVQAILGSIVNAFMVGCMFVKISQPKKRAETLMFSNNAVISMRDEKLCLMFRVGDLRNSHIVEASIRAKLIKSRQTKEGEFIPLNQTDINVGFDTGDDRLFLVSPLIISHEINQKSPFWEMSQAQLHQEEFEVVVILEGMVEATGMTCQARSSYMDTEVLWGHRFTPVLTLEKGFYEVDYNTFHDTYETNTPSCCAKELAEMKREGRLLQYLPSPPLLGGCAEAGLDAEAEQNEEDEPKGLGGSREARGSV
compound,measurement,setting,value
"Cc1cc(CO)nc2cc3c(cc12)OC(C)(C)[C@H](O)[C@H]3NCCc1ccccc1 [Compound (I), (3R,4S)-7-Hydroxymethyl-2,2,9-trimethyl-4-(phenethylamino)-3,4-dihydro-2H-pyrano[2,3-g]quinoline-3-ol]",cases in which fingolimod-induced atrioventricular block was not observed,"Hartley guinea pigs; 1 mg/kg oral gavage, four cases per group",75%
same,fingolimod-induced bradycardia (ventricular beating rate),"Hartley guinea pigs; 3 mg/kg oral gavage, fingolimod hydrochloride 0.1 mg/kg i.v.",almost restored
same,cases in which fingolimod-induced atrioventricular block was not observed,"Hartley guinea pigs; 3 mg/kg oral gavage, four cases per group",75%
same,fingolimod-induced bradycardia (ventricular beating rate / heart rate),"Hartley guinea pigs; 10 mg/kg oral gavage, fingolimod hydrochloride 0.1 mg/kg i.v.",completely restored; also recorded: completely resolved
same,cases in which fingolimod-induced atrioventricular block was suppressed,"Hartley guinea pigs; 10 mg/kg oral gavage, four cases per group",100%
same,onset of fingolimod-induced bradyarrhythmia (atrioventricular block),"Hartley guinea pigs; 1, 3, 10 mg/kg oral gavage, FIG. 1 and FIG. 2",prevented the onset of fingolimod-induced bradyarrhythmia (atrioventricular block) in a dose-dependent manner
same,fingolimod-induced bradycardia (ventricular beating rate / heart rate),"Hartley guinea pigs; compound (I) 1, 3, 10 mg/kg oral gavage before fingolimod hydrochloride 0.1 mg/kg i.v. over 10 min, FIG. 1",improved in a dose-dependent manner; also recorded: prevented a reduction in heart rate
same,fingolimod-induced prolongation of QT time,Hartley guinea pigs; compound (I) oral gavage 1-10 mg/kg,almost completely suppressed
same,KACh channel inhibitory action,KACh channel,has a KACh channel inhibitory action
